The results in this text go back to US8182527B2, “Heparin barrier coating for controlled drug release” (Cordis Corporation, priority 2001, dated 2012).

For data set [1], the system named is human coronary artery smooth muscle cells. Nature of the data set: Anti-proliferative activity in synchronized cultured human coronary artery smooth muscle cells stimulated with two percent fetal bovine serum. In kind it is cell-based. Conditions: for effect on the anti-proliferative rapamycin dose response curve: added to cells treated with rapamycin. The source says: (§1) The multiple curves represent various concentrations of topotecan ranging from zero to three hundred nanomolar concentrations.
(§2) The multiple curves represent various concentrations of etoposide ranging from zero to eight hundred nanomolar concentrations.
The multiple curves represent various concentrations of Panzem® ranging from zero to 100 micromolar concentrations.

Another data set can be described thus: Cell viability assay. In kind it is cell-based.
Text: as §1, §2

In data set [2] the test system is human coronary artery smooth muscle cells. In words: Anti-proliferative activity in non-synchronized cultured human coronary artery smooth muscle cells stimulated with two percent fetal bovine serum. In kind it is cell-based. The following applies: for effect on the anti-proliferative rapamycin dose response curve: added to cells treated with rapamycin. The source says:
The multiple curves represent various concentrations of mycophenolic acid ranging from zero to one thousand nanomolar concentrations. […] This potentiation observed in cultured coronary artery smooth muscle cells preferably translates to an enhancement in anti-restenotic efficacy following vascular injury and a reduction in the required amount of either agent to achieve the desired anti-restenotic effect.
FIG. 58 illustrates, in graphical format, the anti-proliferative activity of cladribine in non-synchronized cultured human coronary artery smooth muscle cells stimulated with two percent fetal bovine serum.
The multiple curves represent various concentrations of cladribine ranging from zero to nine hundred nanomolar concentrations. […] As illustrated, the percent inhibition increases substantially as the dose of cladribine increases.

Data set [3] is described as follows: Drug concentration in liquid formulations by liquid chromatography / HPLC. Format: physicochemical. Here is the method:
Table 8, shown below, summarizes the concentrations of the excipient, the co-solvents and the drug for four different liquid formulations in accordance with exemplary embodiments of the present invention.
As set forth above, a liquid formulation comprising 4 mg/ml of sirolimus may be achieved utilizing PEG 200 as the excipient and ethanol and water as the co-solvents. […] The high concentration of sirolimus is necessary to maintain an effective and high local concentration of sirolimus after delivery to the site. The liquid formulations are flowable at room temperature and are compatible with a number of delivery devices. Specifically, each of these formulations were successfully injected through an infusion catheter designated by the brand name CRESCENDO™ from Cordis Corporation, Miami, Fla., as described in more detail subsequently, and the EndoBionics Micro Syringe™ Infusion Catheter available from EndoBionics, Inc., San Leandros, Calif., as described in more detail above, in porcine studies.
In another exemplary embodiment, the liquid formulation of sirolimus comprises water and ethanol as co-solvents and Vitamin E TPGS as the excipient. The liquid formulation was created utilizing the following process. Two hundred milligrams of sirolimus and two grams of ethanol were added to a pre-weighed twenty milliliter scintillation vial. […]

The test system of data set [4] is human coronary artery smooth muscle cell survival. Nature of the data set: MTS cytotoxicity assay. In kind it is cell-based. The following applies: 6.6 to 30,000.00 nanomolar tested. The source says:
Typically, a control is utilized to determine baseline toxicity.
A general note: Tetrazolium dyes change colour on reduction, which living cells bring about.

In data set [5] the test system is human coronary artery smooth muscle cell proliferation. In words: In vitro cell culture study of coronary artery smooth muscle cell proliferation (trichostatin A). Format: cell-based. The source says: FIG. 51 is a graph of the inhibition of coronary artery smooth muscle cells by trichostatin A in a cell culture study.
Data set [6] is classed as physicochemical. The following applies: 0.02 weight percent per total basecoat solids. The source says:
Referring to FIG. 75, there is illustrated in graphical format, the results of the same drug screening as described above with the solution applied to a cobalt-chromium, 18 mm stent. In this test, two sets of solution samples were utilized, one with sirolimus and polymer solution containing the antioxidant and one with sirolimus and polymer solution containing no antioxidant. The antioxidant utilized was 0.02 weight percent BHT per total basecoat solids. The test was utilized to determine the percent drug content change over a time period of 0 to 12 weeks under two conditions; namely, 40° C. with 75 percent relative humidity, and ambient conditions (25° C.).

As to `CC[C@@]1(O)C(=O)OCc2c1cc1n(c2=O)Cc2cc3c(CN(C)C)c(O)ccc3nc2-1` [topotecan], in data set [1], the “effect on the anti-proliferative rapamycin dose response curve” value is “potentiate the anti-proliferative activity of rapamycin”. In the data set “Cell viability assay” (concentrations up to one micromolar), the “cytotoxicity in cell viability assay” value is “non-cytotoxic”.

Regarding `Nc1nc(Cl)nc2c1ncn2[C@H]1C[C@H](O)[C@@H](CO)O1` [Cladribine, 2-chlorodeoxyadenosine], in data set [2], the “effect on the anti-proliferative rapamycin dose response curve” value is listed as “potentiate the anti-proliferative activity of rapamycin”. Further, in data set [2] (two percent fetal bovine serum), the “inhibition of human coronary artery smooth muscle cell proliferation” value was “completely inhibits”. Regarding `CO[C@H]1C[C@@H]2CC[C@@H](C)[C@@](O)(O2)C(=O)C(=O)N2CCCC[C@H]2C(=O)O[C@H]([C@H](C)C[C@@H]2CC[C@@H](O)[C@H](OC)C2)CC(=O)[C@H](C)/C=C(\C)[C@@H](O)[C@@H](OC)C(=O)[C@H](C)C[C@H](C)/C=C/C=C/C=C/1C` [rapamycin], in data set [3] (4 mg/ml formulation with PEG 200, ethanol and water), the “concentration relative to the solubility of sirolimus in water” value is on record as “about four hundred to about one thousand times higher”. As to `COc1cc([C@@H]2c3cc4c(cc3[C@@H](O[C@@H]3O[C@@H]5CO[C@@H](C)O[C@H]5[C@H](O)[C@H]3O)[C@H]3COC(=O)[C@H]23)OCO4)cc(OC)c1O` [etoposide], the “effect on the anti-proliferative rapamycin dose response curve” value in data set [1] is reported as “potentiate the anti-proliferative activity of rapamycin”. In addition, the “cytotoxicity in cell viability assay” value in the data set “Cell viability assay” (concentrations up to ten micromolar) is recorded as “non-cytotoxic”. For the molecule `COc1cc2c(cc1O)CC[C@@H]1[C@@H]2CC[C@]2(C)[C@@H](O)CC[C@@H]12` [Panzem®, 2-methoxyestradiol], the “effect on the anti-proliferative rapamycin dose response curve” value in data set [1] is listed as “potentiation of rapamycin by Panzem®”. The anti-proliferative activity entry in data set [1] (two percent fetal bovine serum, alone) is reported as “extremely effective inhibitor of human coronary artery smooth muscle cell proliferation in vitro”. Moreover, the “concentrations that do not reduce human coronary artery smooth muscle cell survival” value in data set [4] is recorded as “up to 30,000.00 nanomolar”. As usually defined, the IC50 is the concentration that gives 50% inhibition. Turning to `CC(/C=C/C(=O)NO)=C\[C@@H](C)C(=O)c1ccc(N(C)C)cc1` [trichostatin A], the “inhibition of human coronary artery smooth muscle cell proliferation” value in data set [5] is “completely inhibit”. The IC50 in data set [5] (human coronary artery smooth muscle cells, read-out: anti-proliferative IC50) was around 6 nM. Consider `CO[C@H]1C[C@@H]2CC[C@@H](C)[C@@](O)(O2)C(=O)C(=O)N2CCCC[C@H]2C(=O)O[C@H]([C@H](C)C[C@@H]2CC[C@@H](OC(=O)C(C)(CO)CO)[C@H](OC)C2)CC(=O)[C@H](C)/C=C(\C)[C@@H](O)[C@@H](OC)C(=O)[C@H](C)C[C@H](C)/C=C/C=C/C=C/1C` [CCI-779], for which the “concentration in the final solution (HPLC assay)” value in data set [3] (ethanol (less than two percent), Vitamin E TPGS and water) was 15000 µg/mL. Regarding `COc1c(C)c2c(c(O)c1C/C=C(\C)CCC(=O)O)C(=O)OC2` [mycophenolic acid], the “effect on the anti-proliferative rapamycin dose response curve” value in data set [2] was “potentiates the anti-proliferative activity of rapamycin”. As to `Cc1cc(C(C)(C)C)c(O)c(C(C)(C)C)c1` [BHT, Butylated Hydroxytoluene], the “effect on drug degradation on coated stent” value in data set [6] is “lessens drug degradation at both 8 weeks and 12 weeks under ambient conditions”.
